# Experimental data from patent US20240279215A1 (Cytokinetics, Incorporated, priority 2022, published 2024).
# pEC50: −log10 of the molar value.
# Biological target: human NAMPT (Homo sapiens (Human), UniProt P43490)
# Experiment: NMN fluorescence biochemical assay (human recombinant NAMPT enzyme assay)
# In short: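 NMN formed was detected by fluorescence (Ex/Em 355/460 nm) after acetophenone, KOH and formic acid derivatization. The cell-free reaction ran 60 min at ambient temperature with 6 nM human NAMPT, 150 μM nicotinamide, 20 μM PRPP, 2.5 mM ATP, pH 7.2 HEPES, and compound dose responses.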
# Sequence of human NAMPT (P43490 whole entry): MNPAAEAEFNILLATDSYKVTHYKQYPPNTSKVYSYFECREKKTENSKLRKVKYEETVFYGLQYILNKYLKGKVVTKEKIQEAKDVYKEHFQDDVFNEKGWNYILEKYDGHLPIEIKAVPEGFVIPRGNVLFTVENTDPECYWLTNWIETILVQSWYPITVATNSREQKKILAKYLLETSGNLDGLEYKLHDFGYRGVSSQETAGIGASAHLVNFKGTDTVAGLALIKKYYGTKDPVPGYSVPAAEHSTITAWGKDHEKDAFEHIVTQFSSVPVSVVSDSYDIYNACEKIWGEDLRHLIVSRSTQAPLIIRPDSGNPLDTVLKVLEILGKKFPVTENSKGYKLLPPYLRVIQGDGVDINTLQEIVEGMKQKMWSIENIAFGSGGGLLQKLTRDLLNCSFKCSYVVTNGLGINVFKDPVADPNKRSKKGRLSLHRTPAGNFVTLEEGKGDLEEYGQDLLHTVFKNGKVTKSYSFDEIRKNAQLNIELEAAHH
SMILES,AC1.4 Human [µM],pEC50
"CN(C)C(=O)N1CC2CCC(C1)C2Cc1ccc(NC(=O)OCc2cnco2)cc1 (stereo not shown) [Compound 422, oxazol-5-ylmethyl (4-((3-(dimethylcarbamoyl)-3-azabicyclo[3.2.1]octan-8-yl)methyl)phenyl)carbamate]",0.07,4.94
"CC(C)C(=O)N1CC2CCC(C1)C2Cc1ccc(NC(=O)OCc2cnco2)cc1 (stereo not shown) [Compound 423, oxazol-5-ylmethyl (4-((3-isobutyryl-3-azabicyclo[3.2.1]octan-8-yl)methyl)phenyl)carbamate]",0.18,4.81
"O=C(Nc1ccc(CC2C3CCC2CN(C2COC2)C3)cc1)OCc1cnco1 (stereo not shown) [Compound 425, oxazol-5-ylmethyl (4-((3-(oxetan-3-yl)-3-azabicyclo[3.2.1]octan-8-yl)methyl)phenyl)carbamate]",0.57,4.28
"O=C(Nc1ccc(CC2C3CCC2CNC3)cc1)OCc1cnco1 (stereo not shown) [Compound 426, oxazol-5-ylmethyl (4-((3-azabicyclo[3.2.1]octan-8-yl)methyl)phenyl)carbamate]",1.62,4.49
"O=C(Nc1ccc(C2CCN(C(=O)N3CCC3)CC2)cc1)OCc1cnco1 [Compound 429, oxazol-5-ylmethyl (4-(1-(azetidine-1-carbonyl)piperidin-4-yl)phenyl)carbamate]",0.19,4.38
"CCC(=O)N1CCC(c2ccc(NC(=O)OCc3cnco3)cc2)CC1 [Compound 430, oxazol-5-ylmethyl (4-(1-propionylpiperidin-4-yl)phenyl)carbamate]",0.11,4.70
"O=C(Nc1ccc(C2CCN(C(=O)C3CC3)CC2)cc1)OCc1cnco1 [Compound 431, oxazol-5-ylmethyl (4-(1-(cyclopropanecarbonyl)piperidin-4-yl)phenyl)carbamate]",0.17,4.56
"CN(C)S(=O)(=O)N1CC2CC(C1)C2Cc1ccc(NC(=O)OCc2cnco2)cc1 (stereo not shown) [Compound 433, oxazol-5-ylmethyl (4-((3-(N,N-dimethylsulfamoyl)-3-azabicyclo[3.1.1]heptan-6-yl)methyl)phenyl)carbamate]",0.21,5.13
"CS(=O)(=O)N1CC2CC(C1)C2Cc1ccc(NC(=O)OCc2cnco2)cc1 (stereo not shown) [Compound 434, oxazol-5-ylmethyl (4-((3-(methylsulfonyl)-3-azabicyclo[3.1.1]heptan-6-yl)methyl)phenyl)carbamate]",0.06,5.68
"COC(=O)N1CC2CC(C1)C2Cc1ccc(NC(=O)OCc2cnco2)cc1 (stereo not shown) [Compound 435, methyl 6-(4-(((oxazol-5-ylmethoxy)carbonyl)amino)benzyl)-3-azabicyclo[3.1.1]heptane-3-carboxylate]",0.08,5.12
"CN(C)C(=O)N1CC2CC(C1)C2Cc1ccc(NC(=O)OCc2cnco2)cc1 (stereo not shown) [Compound 436, oxazol-5-ylmethyl (4-((3-(dimethylcarbamoyl)-3-azabicyclo[3.1.1]heptan-6-yl)methyl)phenyl)carbamate]",0.08,5.22
"CC(C)C(=O)N1CC2CC(C1)C2Cc1ccc(NC(=O)OCc2cnco2)cc1 (stereo not shown) [Compound 437, oxazol-5-ylmethyl (4-((3-isobutyryl-3-azabicyclo[3.1.1]heptan-6-yl)methyl)phenyl)carbamate]",0.27,5.01
"CC(=O)N1CC2CC(C1)C2Cc1ccc(NC(=O)OCc2cnco2)cc1 (stereo not shown) [Compound 438, oxazol-5-ylmethyl (4-((3-acetyl-3-azabicyclo[3.1.1]heptan-6-yl)methyl)phenyl)carbamate]",0.04,5.57
"O=C(Nc1ccc(CC2C3CC2CN(C2COC2)C3)cc1)OCc1cnco1 (stereo not shown) [Compound 439, oxazol-5-ylmethyl (4-((3-(oxetan-3-yl)-3-azabicyclo[3.1.1]heptan-6-yl)methyl)phenyl)carbamate]",1.47,4.59
"O=C(Nc1ccc(CC2CCN(C3COC3)C3(CC3)C2)cc1)OCc1cnco1 (stereo not shown) [Compound 441, oxazol-5-ylmethyl (4-((4-(oxetan-3-yl)-4-azaspiro[2.5]octan-7-yl)methyl)phenyl)carbamate]",0.17,4.97
"CC(=O)N1CC2CCC(C1)C2c1ccc(NC(=O)OCc2cnco2)cc1 (stereo not shown) [Compound 445, oxazol-5-ylmethyl (4-(3-acetyl-3-azabicyclo[3.2.1]octan-8-yl)phenyl)carbamate]",0.56,4.47
"CC(C)OC(=O)N1CCC(Cc2ccc(NC(=O)OCc3cnco3)cc2)CC1 [Compound 446, isopropyl 4-(4-(((oxazol-5-ylmethoxy)carbonyl)amino)benzyl)piperidine-1-carboxylate]",0.73,4.71
"O=C(Nc1ccc(CC2CCN(C3COC3)CC2)c(F)c1)OCc1cnco1 [Compound 452, oxazol-5-ylmethyl (3-fluoro-4-((1-(oxetan-3-yl)piperidin-4-yl)methyl)phenyl)carbamate]",0.18,4.89
"CS(=O)(=O)N1CCC(Cc2ccc(NC(=O)OCc3cnco3)cc2)C2CC21 (stereo not shown) [Compound 453, oxazol-5-ylmethyl (4-((2-(methylsulfonyl)-2-azabicyclo[4.1.0]heptan-5-yl)methyl)phenyl)carbamate]",0.35,4.36
"CN(C)C(=O)N1CCC(Cc2ccc(NC(=O)OCc3cnco3)cc2)C2CC21 (stereo not shown) [Compound 454, oxazol-5-ylmethyl (4-((2-(dimethylcarbamoyl)-2-azabicyclo[4.1.0]heptan-5-yl)methyl)phenyl)carbamate]",0.14,4.79
"O=C(Nc1ccc(CC2CCN(C3COC3)C3CC23)cc1)OCc1cnco1 (stereo not shown) [Compound 455, oxazol-5-ylmethyl (4-((2-(oxetan-3-yl)-2-azabicyclo[4.1.0]heptan-5-yl)methyl)phenyl)carbamate]",0.84,4.49

# The remaining lines, values ahead:
AC1.4 Human [µM],pEC50,SMILES
0.12,5.18,"CS(=O)(=O)N1CC2CCC(C1)C2Cc1ccc(NC(=O)OCc2cnco2)cc1 (stereo not shown) [Compound 420, oxazol-5-ylmethyl (4-((3-(methylsulfonyl)-3-azabicyclo[3.2.1]octan-8-yl)methyl)phenyl)carbamate]"
0.13,5.63,"COC(=O)N1CC2CCC(C1)C2Cc1ccc(NC(=O)OCc2cnco2)cc1 (stereo not shown) [Compound 421, methyl 8-(4-(((oxazol-5-ylmethoxy)carbonyl)amino)benzyl)-3-azabicyclo[3.2.1]octane-3-carboxylate]"
0.04,5.95,"CC(=O)N1CC2CCC(C1)C2Cc1ccc(NC(=O)OCc2cnco2)cc1 (stereo not shown) [Compound 424, oxazol-5-ylmethyl (4-((3-acetyl-3-azabicyclo[3.2.1]octan-8-yl)methyl)phenyl)carbamate]"
0.16,5.58,"CCS(=O)(=O)N1CCC(c2ccc(NC(=O)OCc3cnco3)cc2)CC1 [Compound 427, oxazol-5-ylmethyl (4-(1-(ethylsulfonyl)piperidin-4-yl)phenyl)carbamate]"
0.07,5.53,"O=C(Nc1ccc(C2CCN(S(=O)(=O)N3CCC3)CC2)cc1)OCc1cnco1 [Compound 428, oxazol-5-ylmethyl (4-(1-(azetidin-1-ylsulfonyl)piperidin-4-yl)phenyl)carbamate]"
0.07,5.33,"CN(C)S(=O)(=O)N1CCC(c2ccc(NC(=O)OCc3cnco3)cc2)CC1 [Compound 432, oxazol-5-ylmethyl (4-(1-(N,N-dimethylsulfamoyl)piperidin-4-yl)phenyl)carbamate]"
0.21,5.45,"CN(C)S(=O)(=O)N1CCC(Cc2ccc(NC(=O)OCc3cnco3)cc2)CC12CC2 (stereo not shown) [Compound 440, oxazol-5-ylmethyl (4-((4-(N,N-dimethylsulfamoyl)-4-azaspiro[2.5]octan-7-yl)methyl)phenyl)carbamate]"
0.12,5.42,"CN(C)C(=O)N1CCC(Cc2ccc(NC(=O)OCc3cnco3)cc2)CC12CC2 (stereo not shown) [Compound 442, oxazol-5-ylmethyl (4-((4-(dimethylcarbamoyl)-4-azaspiro[2.5]octan-7-yl)methyl)phenyl)carbamate]"
0.22,5.19,"COC(=O)N1CCC(Cc2ccc(NC(=O)OCc3cnco3)cc2)CC12CC2 (stereo not shown) [Compound 443, methyl 7-(4-(((oxazol-5-ylmethoxy)carbonyl)amino)benzyl)-4-azaspiro[2.5]octane-4-carboxylate]"
0.13,5.20,"CC(=O)N1CCC(Cc2ccc(NC(=O)OCc3cnco3)cc2)CC12CC2 (stereo not shown) [Compound 444, oxazol-5-ylmethyl (4-((4-acetyl-4-azaspiro[2.5]octan-7-yl)methyl)phenyl)carbamate]"
0.08,5.64,"CN(C)S(=O)(=O)N1CCC(Cc2ccc(NC(=O)OCc3cnco3)cc2F)CC1 [Compound 447, oxazol-5-ylmethyl (4-((1-(N,N-dimethylsulfamoyl)piperidin-4-yl)methyl)-3-fluorophenyl)carbamate]"
0.13,5.35,"CS(=O)(=O)N1CCC(Cc2ccc(NC(=O)OCc3cnco3)cc2F)CC1 [Compound 448, oxazol-5-ylmethyl (3-fluoro-4-((1-(methylsulfonyl)piperidin-4-yl)methyl)phenyl)carbamate]"
0.13,5.30,"COC(=O)N1CCC(Cc2ccc(NC(=O)OCc3cnco3)cc2F)CC1 [Compound 450, methyl 4-(2-fluoro-4-(((oxazol-5-ylmethoxy)carbonyl)amino)benzyl)piperidine-1-carboxylate]"
0.16,5.11,"CC(=O)N1CCC(Cc2ccc(NC(=O)OCc3cnco3)cc2F)CC1 [Compound 451, oxazol-5-ylmethyl (4-((1-acetylpiperidin-4-yl)methyl)-3-fluorophenyl)carbamate]"
